Results: patent US20100056477A1, “FUNGICIDAL MIXTURES OF AMIDINYLPHENYL COMPOUNDS” (Bayer CropScience AG, priority 2006, published 2010)

Assays:
[1] = LogP (HCOOH)
[2] = system: Botrytis cinerea; assay: Botrytis test (beans)/protective; format: in vivo; details: single active compound, protective, evaluated 2 days after inoculation
Procedure: Solvent: 24.5 parts by weight of acetone • 24.5 parts by weight of dimethylacetamide
(§1) Emulsifier: 1 part by weight of alkylaryl polyglycol ether
To produce a suitable preparation of active compound, 1 part by weight of active compound is mixed with the stated amounts of solvent and emulsifier, and the concentrate is diluted with water to the desired concentration.
To test for protective activity, young plants are sprayed with the preparation of active compound. After the spray coating has dried on, 2 small pieces of agar covered with growth of Botrytis cinerea are placed on each leaf. The inoculated plants are placed in a darkened chamber at 20° C. and a relative atmospheric humidity of 100%.
2 days after the inoculation, the size of the lesions on the leaves is evaluated. 0% means an efficacy which corresponds to that of the control, while an efficacy of 100% means that no disease is observed.

[3] = system: Leptosphaeria nodorum; assay: Leptosphaeria nodorum test (wheat)/protective; format: in vivo; details: single active compound, 125 ppm, protective, evaluated 10 days after inoculation
Procedure: (§2) Solvent: 50 parts by weight of n,n-dimethylacetamid
as §1
(§3) To produce a suitable preparation of active compound, 1 part by weight of active compound or active compound combination is mixed with the stated amounts of solvent and emulsifier, and the concentrate is diluted with water to the desired concentration.
(§4) To test for protective activity, young plants are sprayed with a preparation of active compound or active compound combination at the stated rate of application. After the spray coating has been dried, the plants are sprayed with a spore suspension of Leptosphaeria nodorum. The plants remain for 48 hours in an incubation cabinet at 20° C. and a relative atmospheric humidity of 100%.
(§5) The plants are placed in a greenhouse at a temperature of approximately 15° C. and a relative atmospheric humidity of approximately 80%.
The test is evaluated 10 days after the inoculation. 0% means an efficacy which corresponds to that of the control, while an efficacy of 100% means that no disease is observed.

[4] = system: Septoria tritici; assay: Septoria tritici test (wheat)/protective; format: in vivo; details: single active compound, rate of application 125 ppm, protective, evaluated 20 days after inoculation
Procedure: as §2, §1, §3
as §4, with “test the” for “test for”, “of Septoria tritici.” for “of Leptosphaeria nodorum.”, “hours at 20° C. and then 60 hours at 15° C.” for “hours”, “at” for “at 20° C. and”
as §5
The test is evaluated 20 days after inoculation. 0% means an efficacy which corresponds to that of the control, while an efficacy of 100% means that no disease is observed.

Structure (SMILES)	Efficacy in % ([2]; 10 ppm) [%]	Efficacy in % ([2]; 100 ppm) [%]	Efficacy in % a.e. (actual efficacy) [3] [%]	Efficacy in % a.e. (actual efficacy) [4] [%]	also measured
Cc1cc(Br)c(C=O)cc1[N+](=O)[O-] [2-bromo-4-methyl-5-nitrobenzaldehyd, 2-bromo-4-methyl-5-nitrobenzaldehyde]	–	–	–	–	chromatographic logP ([1]; HCOOH): 2.61
Cc1cc(OCCC[Si](C)(C)C)c(C(F)F)cc1N [5-(difluoromethyl)-2-methyl-4-[3-(trimethylsilyl)propoxy]aniline]	–	–	–	–	chromatographic logP ([1]; HCOOH (formic acid)): 3.8
CCN(C)/C=N/c1cc(C(F)(F)F)c(OCCC[Si](C)(C)C)cc1C [(1-37), N-[5-trifluoro-methyl-2-methyl-4-[3-(trimethylsilyl)propoxyl]phenyl]-N-ethyl-N-methyl-methanimidamide]	0	23	92	30	–
CCN(C)/C=N/c1cc(C(F)F)c(OCCC[Si](C)(C)C)cc1C [(1-42), N′-{5-(difluoromethyl)-2-methyl-4-[3-(trimethylsilyl)propoxy]phenyl}-N-ethyl-N-methylimidoformamide]	0	29	–	–	chromatographic logP ([1]; HCOOH (formic acid)): 2.81
Cn1cc(C(=O)Nc2ccccc2C2CC2C2CC2)c(C(F)F)n1 (centres unmarked) [(b-1), reference compound]	–	38	–	10	–
Cn1cc(C(=O)Nc2ccccc2-c2ccc(C#CC(C)(C)C)cc2)c(C(F)F)n1 [(b-5), reference compound]	80	–	67	–	–
CC(C)(C)C#Cc1ccc(-c2ccccc2NC(=O)c2cccnc2Cl)cc1 [(b-7)]	–	–	67	–	–
CC(C)[C@@H]1C2CCC1c1c(NC(=O)c3cn(C)nc3C(F)F)cccc12 (some centres unmarked) [(b-17)]	–	–	–	30	–
N#Cc1c[nH]cc1-c1cccc2c1OC(F)(F)O2 [(b-19)]	–	–	–	30	–
Cc1cc(OCCC[Si](C)(C)C)c(C(F)F)cc1[N+](=O)[O-] [{3-[2-(difluoromethyl)-5-methyl-4-nitrophenoxy]propyl}(trimethyl)silane]	–	–	–	–	chromatographic logP ([1]; HCOOH): 5.44
